Experimental data published in patent publication US7306811B2, “Fungicide composition based on halosulphone in particular for packaging” (priority 2000, dated 2007).

System: six mushroom strains: Aspergillus Sydowi, Aspergillus Versicolor, Cladosporium Herbarum, Cladosporium Sphaerospernum, Penicillium Citrinum and Penicillium …
Experiment: Development of moulds on treated paper, standard AFNOR X 41 517
Conditions: overall judgement of the paper mould test
Procedure: The following test was carried out. Two surfaces of a woodless industrial paper weighing 80 g/m^2 dry, having a 1-minute COBB value of 25 to 35, were brought into contact with six mushroom strains for 14 days under the quality test conditions of the standard AFNOR X 41 517: the strains used were Aspergillus Sydowi, Aspergillus Versicolor, Cladosporium Herbarum, Cladosporium Sphaerospernum, Penicillium Citrinum and Penicillium Corylophilum. At the end of this period, visual assessment of the development of moulds was noted using a code from 0 to 6+, the value 6+ being allocated to the untreated control, while the notation 0 corresponded to no development of the seeded moulds.
The fungicide solutions used in this test were prepared in the same way as mentioned above. With regard to the fungicide T1, chlorothalonil was mixed in water. The fungicidal product T2 was prepared on the basis of di-iodo-ethyl-p-tolyl-sulphone only. The fungicide T3 was prepared from a mixture of chlorotalonyl and a zinc pyrithione. The fungicide T4 was prepared from a mixture of Amical (di-iodomethyl-p-tolyl-sulphone, and zinc pyrithione. Finally the fungicide T5 corresponds to the mixture given by way of example above according to the invention, i.e. a mixture of chlorotalonyl and di-iodo-methyl-p-tolyl-sulphone or Amical.

| SMILES | fungicidal quality in words, as seen from the Table |
| --- | --- |
| N#Cc1c(Cl)c(Cl)c(Cl)c(C#N)c1Cl [Chlorothalonil alone T1, 2,4,5,6 tetrachloro-1,3 benzene dicarbonitrile] | average fungicide |
| Cc1ccc(S(=O)(=O)C(I)I)cc1 [DIMPTS alone T2, di-iodomethyl-p-tolyl-sulphone] | excellent fungicide |
